Columns and labels:
β-D-galactosidase = test: Detection of β-D-galactosidase on a membrane blot (Example 64); assay type: biochemical; conditions: nitrocellulose, room temperature, 1 hour plus 30 minutes
Procedure: The reagents used are: 1) Compound 9, 5 mM in ethanol; 2) β-D-galactosidase, 10 mg/mL in 0.05M potassium phosphate, pH 7; 3) Enzyme diluent: 0.01M Tris, 0.01M MgCl2, 0.01M mercaptoethanol, 0.01M NaCl, 1% BSA, pH 7.5; 4) 1% BSA in PBS, pH 7.2; 5) Reaction buffer: 0.3M potassium phosphate, 3 mM MgCl2, pH 7.5; 6) Wash buffer: 20 mM Tris, 137 mM NaCl, 0.5% Tween 20, pH 7.5. A stock solution of β-galactosidase is diluted in enzyme diluent to obtain solutions with the following concentrations: 1 μg/μL, 0.1 μg/μL, 0.01 μg/μL, 1 ng/μL, 0.1 ng/μL and 0 ng/μL. 1 μL of each diluted solution is spotted on a two nitrocellulose membranes (1"×1"), pore size 0.45 μM, and dried immediately by blowing argon on the membranes. One of the membranes is blocked by treatment with 1% BSA in PBS for 20 minutes at room temperature. The following mixture is prepared: 4.95 mL of reaction buffer+[…] of Compound 9 stock solution. 2 mL of this solution is added to each of the blots and incubation is carried out at room temperature for 1 hour. The blots are washed once with 2 mL of wash buffer. 0.5 mL of the mixture described above is once again added to the blots and incubation is carried out at room temperature for 30 minutes. The blots are allowed to dry and an image is obtained by illuminating with reflected UV light at 254 nm. […]

[1] = tested on: NIH-3T3 cells (lacZ negative); test: β-galactosidase activity detection in cells by microscopy, lacZ negative (Example 61); assay type: cell-based; conditions: 50 nM, 37° C., 35 minutes
Procedure: (§1) NIH-3T3 cells (lacZ negative) and CRE BAG 2 cells (lacZ positive) are obtained from American Type Culture Collection Co., Rockville, Md. They are grown in a humidified atmosphere of 5% CO2 in D-MEM supplemented with 10% bovine calf serum, 50 μg/mL gentamycin, 300 μg/mL L-glutamine and 10 mM HEPES, pH 7.4. A 50 μM stock solution of Compound 9 is prepared in water: dimethylformamide (DMF) (1:1). NIH-3T3 and CRE BAG 2 cells are trypsinized, washed and suspended in D-MEM containing 10% BCS. 10 μL of the cell suspension is added to 0.989 mL of the same medium. 1 μL of the 50 μM substrate solution is added to the cells to obtain a final concentration of 50 nM. Incubation is carried out at 37° C. for 35 minutes. Cells are centrifuged to form a pellet, supernatant is discarded and cells are resuspended in D-MEM with 10% BCS. Cells are mounted on slides and observed by fluorescence microscopy.

[2] = tested on: CRE BAG 2 cells (lacZ positive); test: β-galactosidase / lacZ detection in cells by microscopy, lacZ positive (Example 61); assay type: cell-based; conditions: 50 nM, 37° C., 35 minutes
Procedure: as §1

β-galactosidase = test: Glycosidase analysis in vitro (Example 60); assay type: biochemical; conditions: substrate 333 μM, room temperature, 20 minutes
Procedure: The stock reagents required are: 1) Compound 9 (Example 7) 5 mM in ethanol; 2) Reaction buffer: 0.3M potassium phosphate, 3 mM MgCl2 pH 7.5; 3) β-galactosidase (Boehringer-Mannheim), dissolved at 10 mg/mL in 0.05M potassium phosphate, pH 7; 4) Enzyme diluent: 0.01M Tris HCl, 0.01M MgCl2, 0.01M NaCl, 0.01M β-mercaptoethanol, pH 7.5. 130 μL of the reaction buffer is added to a series of rows and columns in a microplate. To each of the wells with reaction buffer is added 10 μL of the substrate solution. The enzyme stock solution is diluted to 1 mg/mL, 0.1 mg/mL, 10 μg/mL, 1 μg/mL, 0.1 μg/mL and 0 μg/mL. To the wells containing reaction buffer and substrate, 10 μL of each of the different concentration enzyme solutions is added. The wells containing 0 μg/mL enzyme serve as controls. The plate is allowed to incubate at room temperature for 20 minutes. Fluorescence of each well is determined using a 485 nm excitation filter, a 530 nm emission filter and gain setting of 40. Using the above conditions, as little as 6.7 ng/mL enzyme can be detected using the substrate at 333 μM concentration. The fluorescence response is linear until the enzyme concentration reaches ~6.7 μg/mL.

O=C1OC2(c3ccc(O[C@@H]4O[C@H](CO)[C@H](O)[C@H](O)[C@H]4O)cc3Oc3cc(O[C@@H]4O[C@H](CO)[C@H](O)[C@H](O)[C@H]4O)ccc32)c2ccc(NC(=O)c3c(F)c(F)c(F)c(F)c3F)cc21 [Compound 9, 5-(pentafluorobenzoylamino)fluorescein di-β-D-galactopyranoside]
amount of enzyme detected (β-D-galactosidase): ~ 100 ng | staining of cells, fluorescence microscopy [1]: green fluorescent lysosomes with very little cytoplasmic background | staining of cells, fluorescence microscopy [2]: green fluorescent lysosomes with well-stained green fluorescent cytoplasm | enzyme concentration up to which fluorescence response is linear (β-galactosidase): ~ 6.7 μg/mL | lowest enzyme concentration detected (β-galactosidase): 6.7 ng/mL

Source: patent publication US5773236A, “Assay for glutathiane transferase using polyhaloaryl-substituted reporter molecules” (Molecule Probes, Inc., priority 1997, dated 1998)
